Experimental data taken from patent publication US7875647B2, “Heteroaryl-pyrazole derivatives as cannabinoid CB1 receptor antagonists” (Green Cross Corporation, priority 2006, dated 2011).

Target: T1, Cannabinoid-1 receptor (CB1R) (Rattus norvegicus, UniProt P20272)
T1 construct: The tissue obtained from the brain of SD rats was homogenized; from tissue; host or cells: brain of SD rats (membrane pellet of the homogenate)
Assay: Cannabinoid-1 receptor (CB1R) binding affinity assay ([3H]CP-55940, rat CB-1 receptor binding protocol)
Conditions: IC50(nM), brain tissue of SD rats, [3H]CP-55940, 30° C. 60 min

T1 sequence (P20272 whole entry): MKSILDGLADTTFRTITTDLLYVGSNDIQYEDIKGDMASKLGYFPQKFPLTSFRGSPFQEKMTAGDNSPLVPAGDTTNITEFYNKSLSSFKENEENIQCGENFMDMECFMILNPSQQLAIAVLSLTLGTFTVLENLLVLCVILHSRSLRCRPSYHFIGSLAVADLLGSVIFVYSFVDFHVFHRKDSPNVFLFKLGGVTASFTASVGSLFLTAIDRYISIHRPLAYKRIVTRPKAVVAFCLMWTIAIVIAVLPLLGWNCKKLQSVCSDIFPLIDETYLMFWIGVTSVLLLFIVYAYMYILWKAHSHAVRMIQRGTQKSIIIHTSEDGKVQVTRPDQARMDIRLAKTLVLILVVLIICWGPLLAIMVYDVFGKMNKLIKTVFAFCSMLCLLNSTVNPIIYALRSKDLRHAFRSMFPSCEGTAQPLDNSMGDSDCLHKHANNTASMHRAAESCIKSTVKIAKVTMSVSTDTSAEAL

Row | Structure (SMILES) | IC50 [nM]
1 | CCc1c(-c2nnc(C3(c4ccc(Cl)cc4)CCC3)s2)nn(-c2ccc(Cl)cc2Cl)c1-c1ccc(Cl)cc1 [Example 483, 2-(5-(4-chlorophenyl)-1-(2,4-dichlorophenyl)-4-ethyl-1H-pyrazol-3-yl)-5-(1-(4-chlorophenyl)cyclobutyl)-1,3,4-thiadiazole] | 2.32
2 | Cc1c(-c2nnc(C(C)(C)OCc3cccc(Cl)c3)o2)nn(-c2ccc(Cl)cc2Cl)c1-c1ccc(Cl)cc1 [Example 249, 2-(2-(3-Chlorobenzyloxy)propan-2-yl)-5-(5-(4-chlorophenyl)-1-(2,4-dichlorophenyl)-4-methyl-1H-pyrazol-3-yl)-1,3,4-oxadiazole] | 11.1
3 | CCCC(C)c1nnc(-c2nn(-c3ccc(Cl)cc3Cl)c(-c3ccc(Cl)cc3)c2CC)s1 (centres unmarked) [Example 412, 2-(5-(4-chlorophenyl)-1-(2,4-dichlorophenyl)-4-ethyl-1H-pyrazol-3-yl)-5-(pentan-2-yl)-1,3,4-thiadiazole] | 11

Same assay, conditions: brain tissue of SD rats, [3H]CP-55940, 30° C. 60 min; read-out: IC50

Row | Structure (SMILES) | IC50 [nM]
4 | CC(C)(C)c1nnc(-c2nn(-c3ccc(Cl)cc3Cl)c(-c3ccc(Br)cc3)c2Cn2cncn2)o1 [Example 329, 2-(4-((1H-1,2,4-triazol-1-yl)methyl)-5-(4-bromophenyl)-1-(2,4-dichlorophenyl)-1H-pyrazol-3-yl)-5-tert-butyl-1,3,4-oxadiazole] | 2.75
5 | CC(O)c1c(-c2nnc(C(C)(C)C)o2)nn(-c2ccc(Cl)cc2Cl)c1-c1ccc(Cl)cc1 (centres unmarked) [Example 207, 1-(3-(5-tert-butyl-1,3,4-oxadiazol-2-yl)-5-(4-chlorophenyl)-1-(2,4-dichlorophenyl)-1H-pyrazol-4-yl)ethanol] | 10.1
6 | CCc1c(-c2nnc(C3(c4ccc(OC)cc4)CC3)o2)nn(-c2ccc(Cl)cc2Cl)c1-c1ccc(Br)cc1 [Example 175, 2-(5-(4-bromophenyl)-1-(2,4-dichlorophenyl)-4-ethyl-1H-pyrazol-3-yl)-5-(1-(4-methoxyphenyl)cyclopropyl)-1,3,4-oxadiazole] | 5.71
7 | CCc1c(-c2nnc(C3(c4ccccc4)CC3)s2)nn(-c2ccc(Cl)cc2Cl)c1-c1ccc(Br)cc1 [Example 450, 2-(5-(4-bromophenyl)-1-(2,4-dichlorophenyl)-4-ethyl-1H-pyrazol-3-yl)-5-(1-phenylcyclopropyl)-1,3,4-thiadiazole] | 7.42
8 | Cc1c(-c2nnc(C3CCC3)s2)nn(-c2ccccc2Cl)c1-c1ccc(Br)cc1 [Example 427, 2-(5-(4-bromophenyl)-1-(2-chlorophenyl)-4-methyl-1H-pyrazol-3-yl)-5-cyclobutyl-1,3,4-thiadiazole] | 29.6
9 | CCc1c(-c2nnc(C3(Cc4ccc(Cl)cc4)CC3)o2)nn(-c2ccc(Cl)cc2Cl)c1-c1ccc(Br)cc1 [Example 281, 2-(1-(4-chlorobenzyl)cyclopropyl)-5-(5-(4-bromophenyl)-1-(2,4-dichlorophenyl)-4-ethyl-1H-pyrazol-3-yl)-1,3,4-oxadiazole] | 6.21
10 | CC(F)c1c(-c2nnc(C3(c4ccc(Cl)cc4)CC3)o2)nn(-c2ccc(Cl)cc2Cl)c1-c1ccc(Cl)cc1 (centres unmarked) [Example 212, 2-(5-(4-chlorophenyl)-1-(2,4-dichlorophenyl)-4-(1-fluoroethyl)-1H-pyrazol-3-yl)-5-(1-(4-chlorophenyl)cyclopropyl)-1,3,4-oxadiazole] | 4.97
11 | CCc1c(-c2nnc(C3(C#N)CC3)o2)nn(-c2ccc(Cl)cc2Cl)c1-c1ccc(Br)cc1 [Example 266, 1-(5-(5-(4-bromophenyl)-1-(2,4-dichlorophenyl)-4-ethyl-1H-pyrazol-3-yl)-1,3,4-oxadiazol-2-yl)cyclopropanecarbonitrile] | 15.5
12 | Cc1c(-c2nnn(Cc3ccncc3)n2)nn(-c2ccc(Cl)cc2Cl)c1-c1ccc(Cl)cc1 [Example 588, 4-((5-(5-(4-Chlorophenyl)-1-(2,4-dichlorophenyl)-4-methyl-1H-pyrazol-3-yl)-2H-tetrazol-2-yl)methyl)pyridine] | 135
13 | Clc1ccc(-c2c(Cn3cncn3)c(-c3nnc(C4CCCCC4)o3)nn2-c2ccc(Cl)cc2Cl)cc1 [Example 316, 2-(4-((1H-1,2,4-triazol-1-yl)methyl)-5-(4-chlorophenyl)-1-(2,4-dichlorophenyl)-1H-pyrazol-3-yl)-5-cyclohexyl-1,3,4-oxadiazole] | 3.42
14 | Clc1ccc(-c2c(Cn3cncn3)c(-c3nnc(C4(c5ccc(Cl)cc5)CCCC4)o3)nn2-c2ccc(Cl)cc2Cl)cc1 [Example 324, 2-(4-((1H-1,2,4-triazol-1-yl)methyl)-5-(4-chlorophenyl)-1-(2,4-dichlorophenyl)-1H-pyrazol-3-yl)-5-(1-(4-chlorophenyl)cyclopentyl)-1,3,4-oxadiazole] | 4.66
15 | Cc1c(-c2nnnn2C2CCCC2)nn(-c2ccc(Cl)cc2Cl)c1-c1ccc(Br)cc1 [Example 606, 5-(5-(4-bromophenyl)-1-(2,4-dichlorophenyl)-4-methyl-1H-pyrazol-3-yl)-1-cyclopentyl-1H-tetrazole] | 11.6

Continued, values first:

Row | IC50 [nM] | Structure (SMILES)
16 | 5.08 | CCc1c(-c2nnc(C3(c4ccc(C)cc4)CC3)s2)nn(-c2ccc(Cl)cc2Cl)c1-c1ccc(Cl)cc1 [Example 480, 2-(5-(4-chlorophenyl)-1-(2,4-dichlorophenyl)-4-ethyl-1H-pyrazol-3-yl)-5-(1-p-tolylcyclopropyl)-1,3,4-thiadiazole]
17 | 39.8 | Cc1c(-c2nnnn2Cc2ccsc2)nn(-c2ccc(Cl)cc2Cl)c1-c1ccc(Cl)cc1 [Example 597, 5-(5-(4-Chlorophenyl)-1-(2,4-dichlorophenyl)-4-methyl-1H-pyrazol-3-yl)-1-(thiophen-3-ylmethyl)-1H-tetrazole]
18 | 60 | Cc1c(-c2nnc(C3CCCO3)o2)nn(-c2ccc(Cl)cc2Cl)c1-c1ccc(Cl)cc1 (centres unmarked) [Example 25, 2-(5-(4-Chlorophenyl)-1-(2,4-dichlorophenyl)-4-methyl-1H-pyrazol-3-yl)-5-(tetrahydrofuran-2-yl)-1,3,4-oxadiazole]
19 | 53.8 | Cc1c(-c2nnnn2Cc2ccco2)nn(-c2ccc(Cl)cc2Cl)c1-c1ccc(Cl)cc1 [Example 593, 5-(5-(4-Chlorophenyl)-1-(2,4-dichlorophenyl)-4-methyl-1H-pyrazol-3-yl)-1-(furan-2-ylmethyl)-1H-tetrazole]
20 | 77.6 | Cc1c(-c2nnn(Cc3ccsc3)n2)nn(-c2ccc(Cl)cc2Cl)c1-c1ccc(Cl)cc1 [Example 598, 5-(5-(4-Chlorophenyl)-1-(2,4-dichlorophenyl)-4-methyl-1H-pyrazol-3-yl)-2-(thiophen-3-ylmethyl)-2H-tetrazole]
21 | 8.93 | CC(C)(C)c1nnc(-c2nn(-c3ccc(Cl)cc3Cl)c(-c3ccc(Br)cc3)c2CF)s1 [Example 525, 2-(5-(4-bromophenyl)-1-(2,4-dichlorophenyl)-4-(fluoromethyl)-1H-pyrazol-3-yl)-5-tert-butyl-1,3,4-thiadiazole]
22 | 12.6 | CCC1(c2nnc(-c3nn(-c4ccc(Cl)cc4Cl)c(-c4ccc(Cl)cc4)c3C)o2)CC1 [Example 277, 2-(5-(4-chlorophenyl)-1-(2,4-dichlorophenyl)-4-methyl-1H-pyrazol-3-yl)-5-(1-ethylcyclopropyl)-1,3,4-oxadiazole]
23 | 18.7 | CCc1c(-c2nnc(C3CCCC3)s2)nn(-c2ccc(Cl)cc2Cl)c1-c1ccc(Br)cc1 [Example 376, 2-(5-(4-Bromophenyl)-1-(2,4-dichlorophenyl)-4-ethyl-1H-pyrazol-3-yl)-5-cyclopentyl-1,3,4-thiadiazole]
24 | 23.1 | CC(C)(C)c1nnc(-c2nn(-c3ccc(Cl)cc3Cl)c(-c3ccc(Cl)cc3)c2Br)s1 [Example 541, 2-(4-bromo-5-(4-chlorophenyl)-1-(2,4-dichlorophenyl)-1H-pyrazol-3-yl)-5-tert-butyl-1,3,4-thiadiazole]
25 | 12.4 | Cc1c(-c2nnc(C3(C)CC3(Cl)Cl)o2)nn(-c2ccc(Cl)cc2Cl)c1-c1ccc(Cl)cc1 (centres unmarked) [Example 65, 2-(5-(4-chlorophenyl)-1-(2,4-dichlorophenyl)-4-methyl-1H-pyrazol-3-yl)-5-(2,2-dichloro-1-methylcyclopropyl)-1,3,4-oxadiazole]
26 | 105 | Cc1c(-c2nnn(Cc3ccccc3)n2)nn(-c2ccc(Cl)cc2Cl)c1-c1ccc(Cl)cc1 [Example 582, 2-Benzyl-5-(5-(4-chlorophenyl)-1-(2,4-dichlorophenyl)-4-methyl-1H-pyrazol-3-yl)-2H-tetrazole]
27 | 15.7 | C=CCOCC(C)(C)c1nnc(-c2nn(-c3ccc(Cl)cc3Cl)c(-c3ccc(Cl)cc3)c2C)o1 [Example 97, 2-(1-(allyloxy)-2-methylpropan-2-yl)-5-(5-(4-chlorophenyl)-1-(2,4-dichlorophenyl)-4-methyl-1H-pyrazol-3-yl)-1,3,4-oxadiazole]
28 | 163 | Cc1c(-c2nnc(C3CCOCC3)o2)nn(-c2ccc(Cl)cc2Cl)c1-c1ccc(Cl)cc1 [Example 23, 2-(5-(4-Chlorophenyl)-1-(2,4-dichlorophenyl)-4-methyl-1H-pyrazol-3-yl)-5-(tetrahydro-2H-pyran-4-yl)-1,3,4-oxadiazole]
29 | 35.5 | Clc1ccc(-c2c(Br)c(-c3nnc(C4CCC4)o3)nn2-c2ccc(Cl)cc2Cl)cc1 [Example 340, 2-(4-bromo-5-(4-chlorophenyl)-1-(2,4-dichlorophenyl)-1H-pyrazol-3-yl)-5-cyclobutyl-1,3,4-oxadiazole]
30 | 21.8 | CCc1c(-c2nnc(C3CCC3)s2)nn(-c2ccc(Cl)cc2Cl)c1-c1ccc(Cl)cc1 [Example 395, 2-(5-(4-chlorophenyl)-1-(2,4-dichlorophenyl)-4-ethyl-1H-pyrazol-3-yl)-5-cyclobutyl-1,3,4-thiadiazole]
31 | 11.2 | Cc1c(-c2nnc(C(C)(C)C)s2)nn(-c2ccccc2Cl)c1-c1ccc(Br)cc1 [Example 425, 2-(5-(4-bromophenyl)-1-(2-chlorophenyl)-4-methyl-1H-pyrazol-3-yl)-5-tert-butyl-1,3,4-thiadiazole]
32 | 25.1 | Cc1c(-c2nnc(C(C)(C)OCc3ccccc3F)o2)nn(-c2ccc(Cl)cc2Cl)c1-c1ccc(Cl)cc1 [Example 248, 2-(5-(4-Chlorophenyl)-1-(2,4-dichlorophenyl)-4-methyl-1H-pyrazol-3-yl)-5-(2-(2-fluorobenzyloxy)propan-2-yl)-1,3,4-oxadiazole]
